# Several values for one entry are separate records, joined by “and”; a condition that tells them apart may be missing. Equal entries are not always repeated. Activity calls are given as the source filed them. The rule behind the calls is not given here.
# System: HeLa cell count decrease
# Test: decrease in HeLa cell numbers, dose-response curve, cell enumeration, 50% inhibitory concentration (AID 1117347)
row,SMILES,IC50
1,CC(=O)Nc1ccn(C2COC(COC(=O)c3ccccc3)O2)c(=O)n1 (centres undefined),281 nM
2,Cc1ccc(CCn2c3c(c4cc(Cl)ccc42)CN(C)CC3)cn1,> 10000 nM (inactive)
3,O=c1[nH]c(=O)n([C@H]2C[C@H](O)[C@@H](CO)O2)cc1Br,> 10000 nM (inactive)
4,Cc1nc2ccccc2n1Cc1ccc(Cl)cc1,31.8 nM
5,COc1cc([C@@H]2c3cc4c(cc3[C@H](O)[C@H]3COC(=O)[C@H]23)OCO4)cc(OC)c1OC,4.8 nM
6,CC(C)=CCNc1ncnc2c1ncn2[C@@H]1O[C@H](CO)[C@@H](O)[C@H]1O,995 nM
7,CC[C@]1(O)C[C@@H]2CN(CCc3c([nH]c4ccccc34)[C@@](C(=O)OC)(c3cc4c(cc3OC)N(C)[C@H]3[C@@](O)(C(=O)OC)[C@H](OC(C)=O)[C@]5(CC)C=CCN6CC[C@]43[C@@H]65)C2)C1,5.21 nM and 2.6 nM
8,CCCSc1ccc2nc(NC(=O)OC)[nH]c2c1,37.7 nM
9,COC(=O)c1nc(Cl)c(Cl)nc1N,408 nM
10,Oc1ccc([C@H]2CNCc3c2ccc(O)c3O)cc1O,> 10000 nM (inactive)
11,CCCCCCCCCCOCC(O)CN (centres undefined),> 10000 nM (inactive)
12,CCC(C)(C)C(=O)O[C@H]1C[C@@H](C)C=C2C=C[C@H](C)[C@H](CC[C@@H]3C[C@@H](O)CC(=O)O3)[C@H]21,> 10000 nM (inactive)
13,S=c1nc[nH]c2nc[nH]c12,> 10000 nM (inactive)
14,CC[C@@]1(O)C(=O)OCc2c1cc1n(c2=O)Cc2cc3c(CN(C)C)c(O)ccc3nc2-1,9 nM
15,COc1cccc2c1C(=O)c1c(O)c3c(c(O)c1C2=O)C[C@@](O)(C(=O)CO)C[C@@H]3O[C@H]1C[C@H](N)[C@H](O[C@@H]2CCCCO2)[C@H](C)O1,51.4 nM
16,CN(C)/N=N/c1nc[nH]c1C(N)=O,> 10000 nM (inactive)
17,Cc1cc2c(C(C)C)c(O)c(O)c(C=O)c2c(O)c1-c1c(C)cc2c(C(C)C)c(O)c(O)c(C=O)c2c1O,3710 nM
18,CN(C)c1ccc2nc3ccc(=[N+](C)C)cc-3sc2c1,> 10000 nM (inactive)
19,Cc1cc(=O)c2c(O)c3c(O)cc(=O)c4c3c3c(cc(O)c1c23)C(C)(C)C=4O,1000 nM
20,CCCCCCCCCCCCCCCCCCNC(=O)OC1CCN(C(=O)OC[C@H](COC(=O)N(Cc2cccc[n+]2CC)C(=O)c2ccccc2OC)OC)CC1,6140 nM (inactive)
21,COc1cc(NC(C)CCCN)c2ncccc2c1 (centres undefined),> 10000 nM (inactive)
22,CCN(CC)CCOc1ccc(C(O)(Cc2ccc(Cl)cc2)c2ccc(C)cc2)cc1 (centres undefined),> 10000 nM (inactive)
23,CC(C)(C)C1CCC(CC2=C(O)c3ccccc3C(=O)C2=O)CC1 (centres undefined),> 10000 nM (inactive)
24,Oc1c(I)cc(Cl)c2cccnc12,> 10000 nM (inactive)
25,O=C1c2c(O)cccc2Cc2cccc(O)c21,> 10000 nM (inactive)

row,SMILES,IC50
1,Cc1ccc([N+](=O)[O-])[c]2c1[O][Hg]2,385 nM
2,Cc1c(C)c2c(c(C)c1O)CCC(C)(COc1ccc(CC3SC(=O)NC3=O)cc1)O2 (centres undefined),> 10000 nM (inactive)
3,C[C@@H]1C[C@@H]([C@H](O)CC2CC(=O)NC(=O)C2)C(=O)[C@@H](C)C1,542 nM
4,O=c1[nH]cc(F)c(=O)[nH]1,> 10000 nM (inactive)
5,Cc1cc(CC(C)CC(C)(C)C)n(O)c(=O)c1 (centres undefined),133 nM
6,CCN(CC)CCCC(C)Nc1c2ccc(Cl)cc2nc2ccc(OC)cc12 (centres undefined),1330 nM
7,CSc1ccc2c(c1)C(N1CCN(C)CC1)Cc1ccccc1S2 (centres undefined),> 10000 nM (inactive)
8,CN(Cc1cnc2nc(N)nc(N)c2n1)c1ccc(C(=O)N[C@@H](CCC(=O)O)C(=O)O)cc1,> 10000 nM (inactive)
9,Cn1cnc([N+](=O)[O-])c1Sc1ncnc2nc[nH]c12,> 10000 nM (inactive)
10,Cc1ccc(S(=O)(=O)NC(=O)NN2CC3CCCC3C2)cc1 (centres undefined),> 10000 nM (inactive)
11,CCC(=O)c1ccc(O)cc1,> 10000 nM (inactive)
12,O=C(O)c1ccc(-n2nc(-c3ccccc3O)nc2-c2ccccc2O)cc1,5680 nM (inactive)
13,Clc1ccccc1C(c1ccccc1)(c1ccccc1)n1ccnc1,> 10000 nM (inactive)
14,C[C@@H](O[C@H]1OCCN(Cc2n[nH]c(=O)[nH]2)[C@H]1c1ccc(F)cc1)c1cc(C(F)(F)F)cc(C(F)(F)F)c1,> 10000 nM (inactive)
15,O=c1c(-c2ccccc2)c1-c1ccccc1,1690 nM
16,O=C(O)CN(CCN(CC(=O)O)CC(=O)O)CCN(CC(=O)O)CC(=O)O,> 10000 nM (inactive)
17,CCCCc1ccc2nc(NC(=O)OC)[nH]c2c1,5.66 nM
18,Cc1ccc(Nc2nccc(N(C)c3ccc4c(C)n(C)nc4c3)n2)cc1S(N)(=O)=O,> 10000 nM (inactive)
19,CC(C)=CCOc1ccc(/C=C/C(=O)c2ccc(OCC=C(C)C)cc2OCC(=O)O)cc1,> 10000 nM (inactive)
20,Cc1ccccc1C(OCCN(C)C)c1ccccc1 (centres undefined),> 10000 nM (inactive)
21,COc1ccc2cc1Oc1ccc(cc1)C[C@H]1c3c(cc4c(c3Oc3cc5c(cc3OC)CCN(C)[C@@H]5C2)OCO4)CCN1C,5540 nM (inactive)
22,O=[N+]([O-])c1ccc(O)c2ncccc12,295 nM
23,CCCCCCNC(=O)n1cc(F)c(=O)[nH]c1=O,> 10000 nM (inactive)
24,O=C(Nc1ccc(Br)cc1)c1cc(Br)cc(Br)c1O,> 10000 nM (inactive)
25,O=C(Nc1ccc([N+](=O)[O-])cc1Cl)c1cc(Cl)ccc1O,144 nM

row,SMILES,IC50
1,[O-][n+]1ccccc1SSc1cccc[n+]1[O-],842 nM
2,O=c1[nH]c(=O)n([C@H]2C[C@H](O)[C@@H](CO)O2)cc1I,> 10000 nM (inactive)
3,COc1ccc2cc3[n+](cc2c1OC)CCc1cc2c(cc1-3)OCO2,> 10000 nM (inactive)
4,CCCCCCCCCCCCNCCNCCNCC(=O)O,> 10000 nM (inactive)
5,CC[C@@]1(O)C(=O)OCc2c1cc1n(c2=O)Cc2c-1nc1ccccc1c2/C=N/OC(C)(C)C,2.2 nM
6,CCc1nc(N)nc(N)c1-c1ccc(Cl)cc1,> 10000 nM (inactive)
7,NC(=NCCCCCCN=C(N)/N=C(\N)Nc1ccc(Cl)cc1)/N=C(\N)Nc1ccc(Cl)cc1,6710 nM (inactive)
8,CC[C@H](C)C(=O)O[C@H]1C[C@@H](C)C=C2C=C[C@H](C)[C@H](CC[C@@H]3C[C@@H](O)CC(=O)O3)[C@H]21,> 10000 nM (inactive)
9,O=Cc1ccc(O)c(O)c1O,> 10000 nM (inactive)
10,O=C1[C@H]2CCCC[C@H]2C(=O)N1CCCCN1CCN(c2nsc3ccccc23)CC1,> 10000 nM (inactive)
11,CCN(CCCCOC(=O)c1ccc(OC)c(OC)c1)C(C)Cc1ccc(OC)cc1 (centres undefined),> 10000 nM (inactive)
12,OC[C@H]1O[C@@H](n2cnc3c(=S)nc[nH]c32)[C@H](O)[C@@H]1O,> 10000 nM (inactive)
13,Clc1ccc(Nc2nnc(Cc3ccncc3)c3ccccc23)cc1,> 10000 nM (inactive)
14,COCc1c(C(C)C)nc(C(C)C)c(/C=C/[C@@H](O)C[C@@H](O)CC(=O)O)c1-c1ccc(F)cc1,> 10000 nM (inactive)
15,CCN(CC)CCNc1ccc(CO)c2sc3ccccc3c(=O)c12,5920 nM (inactive)
16,CCN(CC)CCNC(=O)c1c(C)[nH]c(/C=C2\C(=O)Nc3ccc(F)cc32)c1C,1280 nM
17,Nc1ccc2cc3ccc(N)cc3nc2c1,1340 nM
18,CCCOc1ccc2nc(NC(=O)OC)[nH]c2c1,46.7 nM
19,COc1c(C)c2c(c(O)c1C/C=C(\C)CCC(=O)OCCN1CCOCC1)C(=O)OC2,> 10000 nM (inactive)
20,NCCNc1ccc(NCCN)c2c1C(=O)c1ccncc1C2=O,42.1 nM
21,CO[C@@]12[C@H](COC(N)=O)C3=C(C(=O)C(C)=C(N)C3=O)N1C[C@@H]1N[C@@H]12,77.3 nM
22,Fc1ccc(C(OCCN2CCN(CCCc3ccccc3)CC2)c2ccc(F)cc2)cc1,3200 nM
23,CC(C)C[C@H](NC(=O)[C@H](CCc1ccccc1)NC(=O)CN1CCOCC1)C(=O)N[C@@H](Cc1ccccc1)C(=O)N[C@@H](CC(C)C)C(=O)[C@@]1(C)CO1,9.9 nM
24,CCC(C)n1ncn(-c2ccc(N3CCN(c4ccc(OC[C@H]5CO[C@](Cn6cncn6)(c6ccc(Cl)cc6Cl)O5)cc4)CC3)cc2)c1=O (some centres undefined),> 10000 nM (inactive)
